Like-named read-outs stand apart in the source and are kept apart here.
Columns and labels:
[1] = PK modelling of plasma exposure of Example 1 for different dosing regimens; parameters: species or system human; conditions: modelled
Source text: In Table 1, free plasma CMax exposures of Example 1 obtained from modelling different dosing regimens were used to quantify the resulting amount of block at the primary target hNaV1.7. […] Doses of marketed drugs used in trigeminal neuralgia were compared using the same paradigm.

[2] = test system: rat model of inflammation; assay: Freud Complete Adjuvant induced inflammation model, mechanical hypersensitivity by weight bearing; format: in vivo
Experimental: FIG. 1: PK modelling plots: For all doses, the CTrough is higher than efficacious doses in animal model of inflammation. […] FCA1, an oral dose of 1 mg/kg was the minimal effective dose in this model. TGN (trigeminal neuralgia), PLSR (painful lumbosacral radiculopathy).
In this model, inflammation was induced by intraplantar injection of Freud Complete Adjuvant.
Mechanical hypersensitivity was then assessed using weight bearing.

[3] = 150 mg TID dosage study, pharmacokinetics; conditions: both sexes, human, in vivo
Experimental: A clinical trial was conducted to evaluate certain pharmacokinetic parameters of the compound of Example 1 when dosed at 150 mg TID for seven days. 15 young males and females aged 18 to 45 were scheduled to received ether the compound of Example 1 at 150 mg TID during a first period of 8 days followed by placebo during a second period of 8 days; or placebo during the first period and the compound of Example 1 during the second period.

[4] = test system: healthy participants; assay: Safety (adverse events, ECG) in 300/400 mg BID study; format: in vivo, human
Experimental: Safety was assessed through monitoring of adverse events (AEs), vital signs, electrocardiogram (ECG), and laboratory safety tests (including clinical chemistry). The safety population was the primary analysis population for this study and included all participants who received one or more doses of BIIB074. The PK population was defined as participants in the safety population for whom a PK sample was obtained and analysed.

[5] = Pharmacokinetics in 300/400 mg BID study; format: in vivo, human; conditions: for concentration at 12 h: read-out: C12 h
Experimental: The primary endpoint was change in 24 h average SBP and DBP from baseline to day 36 as determined by ABPM. Secondary outcome measures included: change in 24 h average SBP and DBP from baseline to days 4 and 15; change in average SBP and DBP within a 12 h dosing interval from baseline to days 14 and 35 (inpatient); change in 24 h average ambulatory heart rate from baseline to days 4, 15 and 36; proportion of participants whose 24 h SBP and DBP increased by <5, 5-9, 10-14, 15-19, and >20 mm Hg compared with baseline; PK parameters of BIIB074 following a single oral dose in healthy female participants, and following repeated oral doses given twice daily to healthy male and female participants; PK/pharmacodynamic (PD) analyses to examine the correlation between ABP and plasma levels and/or metrics of the systemic exposure of BIIB074. ABPM data were analyzed using a repeated measures mixed effects model, whereby fixed effects were treatment, day, treatment*day, period, average baseline*day, period adjusted baseline*day, sex and treatment*sex; random effect was subject; and repeated effect was day. All summary statistics were carried out using SAS 8.02 for UNIX running under the Harmonisation of Analysis and Reporting Program (HARP) environment. PK parameters were calculated by standard non-compartmental analysis according to working practices and using Wn Nonlin Pro v. 5.2. The safety population was the primary analysis population for this study and included all participants who received one or more doses of BIIB074. The PK population was defined as participants in the safety population for whom a PK sample was obtained and analysed.

[6] = test system: rats; assay: Preclinical safety pharmacology, tyramine-induced hypertension; format: in vivo, rat; conditions: data not shown
Source text: The 36 day treatment duration in this study was rationally designed to determine whether tolerance developed for any potential effects of BIIB074 on SBP or DBP, since BP effects resolved by day 28 in the earlier phase 1 trial. The data from this study show a slight trend towards a decrease in the BP difference between BIIB074 and placebo between day 4 and day 35, although differences were minimal at all time points. […] Thus, the body of evidence, encompassing clinical and preclinical studies, supports safety and minimal effects of BIIB074 on BP/cardiovascular parameters.

[7] = female, human, plasma, oral, 300 mg, Repeat dose Day 1, Female 300 mg bid (N = 21)
[8] = female, human, plasma, oral, 300 mg, Repeat dose Day 14, Female 300 mg bid (N = 21)
[9] = female, human, plasma, oral, 300 mg, Repeat dose Day 35, Female 300 mg bid (N = 21)
[10] = female, human, plasma, oral, 400 mg, Single Dose (400 mg), Female (N = 22)
[11] = male, human, plasma, oral, 400 mg, Repeat dose Day 1, Male 400 mg bid (N = 33)
[12] = male, human, plasma, oral, 400 mg, Repeat dose Day 14, Male 400 mg bid (N = 33)
[13] = male, human, plasma, oral, 400 mg, Repeat dose Day 35, Male 400 mg bid (N = 33)

## Cl.NC(=O)[C@@H]1CC[C@H](c2ccc(OCc3ccccc3F)cc2)N1 [Example 1, (5R)-5-(4-{[(2-Fluorophenyl)methyl]oxy}phenyl)-L-prolinamide hydrochloride]
[1]; 150 mg TID
  CTrough exposure at steady state: 1099 ng/mL
[1]; 150 mg tid
  Cmax Free plasma: 210 nM
  Cmax total plasma: (2.06 μg/ml total plasma)
[1]; 200 mg bid
  Cmax Free plasma: 290 nM
  Cmax total plasma: (2.8 μg/ml total plasma)
[1]; 250 mg TID
  CTrough exposure at steady state: 1750 ng/mL
[1]; 250 mg tid
  Cmax Free plasma: 360 nM
  Cmax total plasma: (3.43 μg/ml total plasma)
[1]; 350 mg bid
  Cmax Free plasma: 370 nM
  Cmax total plasma: (3.74 μg/ml total plasma)
[2]; oral
  minimal effective dose: 1 mg/kg
[2]; oral 5 mg/kg
  effect on mechanical hypersensitivity: fully reversed the mechanical hypersensitivity
[3]; day 8
  Cmax: 2710 ng/mL
[3]; day 8, read-out: AUC0-8
  AUC(0-t): 15300 ng·h/mL
[4]; 300-400 mg bid repeat dose
  AEs of moderate intensity: 9
  AEs of severe intensity: 2
[4]; of 7 AE withdrawals
  participants withdrawn due to AEs while on BIIB074: 5
[4]; whole study
  serious AEs: No serious AEs were reported
[5]; Single Dose (400 mg), Female (N = 22), listed as BIIB074, hydrochloride
  t1/2: 8.91 h
[5]; female, human, plasma, oral, 300 mg bid, Repeat dose Day 14, Female 300 mg bid (N = 21), read-out: AUC(0-12)
  AUC(0-t): 29200 ng·h/mL
[5]; [7]
  Cmax: 2570 ng/mL
  concentration at 12 h: 746 ng/mL
[5]; female, human, plasma, oral, 300 mg, Repeat dose Day 1, Female 300 mg bid (N = 21), read-out: AUC(0-12)
  AUC(0-t): 16200 ng·h/mL
[5]; female, human, plasma, oral, 300 mg, Repeat dose Day 1, Female 300 mg bid (N = 21), read-out: AUC(0-24)
  AUC(0-t): 32400 ng·h/mL
[5]; [8]
  Cmax: 4030 ng/mL
  concentration at 12 h: 1440 ng/mL
[5]; female, human, plasma, oral, 300 mg, Repeat dose Day 14, Female 300 mg bid (N = 21), read-out: AUC(0-24)
  AUC(0-t): 58300 ng·h/mL
[5]; [9]
  Cmax: 3990 ng/mL
  Tmax: 1 h
  concentration at 12 h: 1310 ng/mL
[5]; female, human, plasma, oral, 300 mg, Repeat dose Day 35, Female 300 mg bid (N = 21), read-out: AUC(0-12)
  AUC(0-t): 27400 ng·h/mL
[5]; female, human, plasma, oral, 300 mg, Repeat dose Day 35, Female 300 mg bid (N = 21), read-out: AUC(0-24)
  AUC(0-t): 54800 ng·h/mL
[5]; [10]
  Cmax: 3780 ng/mL
  Tmax: ≤ 1.5 h
  half-life: ~9 h
[5]; female, human, plasma, oral, 400 mg, Single Dose (400 mg), Female (N = 22), read-out: AUC(0-12)
  AUC(0-t): 24200 ng·h/mL
[5]; female, human, plasma, oral, 400 mg, Single Dose (400 mg), Female (N = 22), read-out: AUC(0-24)
  AUC(0-t): 48300 ng·h/mL
[5]; female, human, plasma, oral, 400 mg, Single Dose (400 mg), Female (N = 22), read-out: AUC(0-t)
  AUC(0-t): 32800 ng·h/mL
[5]; human, plasma, oral, Single Dose (400 mg), Female (N = 22)
  AUC(0-inf): 38700 ng·h/mL
[5]; in vivo
  between-subject variability (CV %) of AUC(0-24): 20-25%
[5]; male, human, plasma, oral, 400 mg bid, Repeat dose Day 1, Male 400 mg bid (N = 33), read-out: AUC(0-12)
  AUC(0-t): 19100 ng·h/mL
[5]; [11]
  Cmax: 3210 ng/mL
  Tmax: 1 h
  concentration at 12 h: 889 ng/mL
[5]; male, human, plasma, oral, 400 mg, Repeat dose Day 1, Male 400 mg bid (N = 33), read-out: AUC(0-24)
  AUC(0-t): 38300 ng·h/mL
[5]; [12]
  Cmax: 4790 ng/mL
  Tmax: 1 h
  concentration at 12 h: 1590 ng/mL
[5]; male, human, plasma, oral, 400 mg, Repeat dose Day 14, Male 400 mg bid (N = 33), read-out: AUC(0-12)
  AUC(0-t): 32100 ng·h/mL
[5]; male, human, plasma, oral, 400 mg, Repeat dose Day 14, Male 400 mg bid (N = 33), read-out: AUC(0-24)
  AUC(0-t): 64100 ng·h/mL
[5]; [13]
  Cmax: 4410 ng/mL
  Tmax: 1 h
  concentration at 12 h: 1460 ng/mL
[5]; male, human, plasma, oral, 400 mg, Repeat dose Day 35, Male 400 mg bid (N = 33), read-out: AUC(0-12)
  AUC(0-t): 30100 ng·h/mL
[5]; male, human, plasma, oral, 400 mg, Repeat dose Day 35, Male 400 mg bid (N = 33), read-out: AUC(0-24)
  AUC(0-t): 60100 ng·h/mL
[6]
  effects on tyramine-induced hypertension: no effects on tyramine-induced hypertension in rats

Reference: patent US20190255019A1, “NOVEL DOSAGE REGIMEN” (Biogen MA Inc., priority 2016, published 2019)
